How the values were obtained:
[1] = Hot stage microscope experiments with increasing drug:bisVCap ratios; assay type: physicochemical; conditions: melted, cooled to room temperature
Procedure: One major problem with PVP as an amorphous stabilizer is that often a large amount is required for stabilization of the amorphous phase. This often leads to very large pills or dosage forms which consist of multiple tablets. Thus further hot stage microscope and DSC experiments of bisVCap mixtures with carisoprodol, carbamazepine, isoniazid and ROY were performed with increasing drug:bisVCap ratios to determine the minimum ratio of coformer required to maintain the API in an amorphous state.
For the microscope experiments the drugs and bisVCap were ground in the desired ratio, heated until all the sample had melted then cooled back to room temperature and analyzed by polarized light microscopy.
(§1) A Linkam LTS420 heating stage attached to a Olympus XC50 microscope was used to heat the samples. Samples were placed on a glass microscope slide with a thin glass cover slide. For the amorphous material screening compounds were ground together in various drug to coformer ratio using 0.05 g of coformer in each case and heated at 30° C. min^−1 until the all of the sample had melted. Samples were then removed from the hot stage and allowed to cool. BisVCap was ground in 1:1 molar mixture with carbamazepine, carisoprodol, isoniazid and ROY. The carbamazepine/bisVCap sample was heated from room temperature to 170° C. at a rate of 10° C. min^−1, cooled at ° C. min^−1 to −40° C., then heated at 10° C. min^−1 to 165° C. The carisoprodol/bisVCap sample was heated from room temperature to 150° C. at a rate of 10° C. min^−1, cooled at ° C. min^−1 to −75° C., then heated at 10° C. min^−1 to 145° C. min^−1. The isoniazid/bisVCap sample was heated from room temperature to 175° C. at a rate of 10° C. min^−1, cooled at ° C. min^−1 to −100° C., then heated at 10° C. min^−1 to 125° C. min^−1. The ROY/bisVCap sample was heated from room temperature to 150° C. at a rate of 10° C. min^−1, cooled at ° C. min^−1 to −90° C., then heated at 10° C. min^−1 to 155° C. min^−1.

[2] = ground 1:1 mixture with bisVCap, heated to 150-180° C., cooled to −85° C., second heating cycle
[3] = assay type: physicochemical; conditions: for crystallinity of ROY sample on the basis of birefringence: coformer ground 1:1 molar with ROY (PVP K12, PVCap 1:1 by mass; ROY control without coformer), melted, cooled to room temperature overnight
Text: Compounds 3-8 and VCap were all ground using a mortar and pestle in a 1:1 molar ratio with ROY. Comparative experiments were also undertaken in the same way with PVP (K12) (1) and PVCap (2) in a 1:1 ratio by mass with ROY. The samples were then placed on a microscope slide and covered with a thin, glass cover slip and heated using a hot stage optical microscope until all material had melted. The samples were then removed from the hot stage and allowed to cool to room temperature overnight. The cooled samples were examined under a microscope fitted with cross polarizing filters and assessed for crystallinity on the basis of birefringence.
as §1

[4] = Heat-cool-heat cycles on hot stage with polarized light microscope; assay type: physicochemical; conditions: 1:1 mixture with bisVCap
Text: The same heat-cool-heat cycles used in the DSC experiments were reproduced using a hot stage attached to a polarized light microscope for 1:1 mixtures of carisoprodol, carbamazepine, isoniazid and ROY with bisVCap.
as §1

[5] = Screening of bisVCap and bisVP with a range of drugs (hot stage melt, polarized optical microscopy); assay type: physicochemical; conditions: for crystallinity by polarized light microscopy, drug with bisVCap: drug:bisVCap 1:1 mol ratio, ground, melted, cooled, overnight / 18 hours at room temperature
Procedure: Control samples without lactam coformers were also prepared for comparison. The slides were then allowed to cool to room temperature. The samples were examined using polarized optical microscopy after storing them overnight and again two weeks after melting to assess their crystallinity. Polarized optical micrographs were observed.
as §1, with “For the amorphous material screening compounds were ground together in various drug to coformer ratio using 0.05 g of coformer in each case and heated at 30° C. min^−1 until the all of the sample had melted.” left out

[6] = Dynamic vapor sorption (DVS) water uptake; assay type: physicochemical; conditions: for hygroscopicity: DVS, small mass increase and lack of hysteresis; for mass increase in DVS plot: up to 90% relative humidity
Procedure: A significant issue with PVP as an amorphous stabilizer is its hydroscopicity, and amorphous materials are frequently hygroscopic. Dynamic vapor sorption (DVS) has been used to compare the water uptake of bisVCap and PVP. […] However, amorphous forms have more apparent solubility than crystal forms and it is possible that amorphous bisVCap could absorb much more water than the crystalline form.
DVS was performed using an SMS DVS-1 with a 10% RH step between humidity values with equilibrium achieved at 0.01% weight change before moving to the next step. Methods began at the humidity of the room at ambient which was measured by a Rotronic A/H hygrometer. The humidity was then increased to 90% RH before cycling to 0% RH, to 90% RH, to 0% RH. Samples weighing between 5-20mg were used.

Cc1cc(C#N)c(Nc2ccccc2[N+](=O)[O-])s1 [ROY, 5-methyl-2-[(2-nitrophenyl)amino]-3-thiophenecarbonitrile]
visible crystallization by polarized light microscopy ([1]; 2:1 drug:bisVCap molar ratio): no visible crystallization
visible crystallization by polarized light microscopy ([1]; 3:1 drug:bisVCap ratio): formed crystals overnight
DSC behaviour of mixture with bisVCap [2]: lacking features assignable to decomposition, recrystallization or melting endotherms in the second heating cycle
crystallinity of ROY sample on the basis of birefringence [3]: readily crystallizes
time to ROY crystallization upon cooling ([3]; melt of ROY alone or 1:1 molar with coformer, cooling to room temperature): within a few minutes
coamorphous phase formation in hot stage heat-cool-heat cycle [4]: confirm coamorphous phase formation

CCCCC(=O)N(Cc1ccc(-c2ccccc2-c2nnn[nH]2)cc1)[C@H](C(=O)O)C(C)C [Valsartan]
crystallinity by polarized light microscopy, drug on its own ([5]; control sample without lactam coformer, melted and cooled to room temperature): remains amorphous

CCOC(=O)c1ccc(N)cc1 [benzocaine]
crystallinity by polarized light microscopy, drug with bisVCap [5]: crystallized overnight

Cn1c(=O)c2c(ncn2C)n(C)c1=O [caffeine]
crystallinity by polarized light microscopy, drug with bisVCap [5]: crystallized overnight

NC(=O)N1c2ccccc2C=Cc2ccccc21 [carbamazepine]
crystallinity by polarized light microscopy, drug with bisVCap [5]: appear amorphous
visible crystallization by polarized light microscopy ([1]; 2:1 drug:bisVCap molar ratio): no visible crystallization
visible crystallization by polarized light microscopy ([1]; 3:1 drug:bisVCap ratio): formed crystals overnight
DSC behaviour of mixture with bisVCap [2]: lacking features assignable to decomposition, recrystallization or melting endotherms in the second heating cycle
coamorphous phase formation in hot stage heat-cool-heat cycle [4]: confirm coamorphous phase formation

CCCC(C)(COC(N)=O)COC(=O)NC(C)C (stereo not drawn) [carisoprodol]
crystallinity by polarized light microscopy, drug with bisVCap [5]: appear amorphous
visible crystallization by polarized light microscopy ([1]; 2:1 drug:bisVCap molar ratio): no visible crystallization
visible crystallization by polarized light microscopy ([1]; 3:1 drug:bisVCap ratio): did not show any visible crystallization
visible crystallization by polarized light microscopy ([1]; 4:1 drug:bisVCap ratio): formed crystals overnight
DSC behaviour of mixture with bisVCap [2]: lacking features assignable to decomposition, recrystallization or melting endotherms in the second heating cycle
coamorphous phase formation in hot stage heat-cool-heat cycle [4]: confirm coamorphous phase formation

NCCc1ccc(O)c(O)c1 [dopamine]
crystallinity by polarized light microscopy, drug with bisVCap [5]: appear amorphous

CCc1cc(C(N)=S)ccn1 [ethionamide]
crystallinity by polarized light microscopy, drug with bisVCap [5]: appear amorphous
DSC behaviour of mixture with bisVCap [2]: sharp and overlapping endothermic peaks on heating, which arise from decomposition

CC(C)Cc1ccc(C(C)C(=O)O)cc1 (stereo not drawn) [ibuprofen]
crystallinity by polarized light microscopy, drug with bisVCap [5]: appear amorphous
DSC behaviour of mixture with bisVCap [2]: sharp and overlapping endothermic peaks on heating, which arise from decomposition

NNC(=O)c1ccncc1 [isoniazid]
crystallinity by polarized light microscopy, drug with bisVCap [5]: appear amorphous
visible crystallization by polarized light microscopy ([1]; 2:1 drug:bisVCap molar ratio): no visible crystallization
visible crystallization by polarized light microscopy ([1]; 3:1 drug:bisVCap ratio): formed crystals overnight
DSC behaviour of mixture with bisVCap [2]: lacking features assignable to decomposition, recrystallization or melting endotherms in the second heating cycle
coamorphous phase formation in hot stage heat-cool-heat cycle [4]: confirm coamorphous phase formation

CN(C)C(=N)N=C(N)N [metformin]
crystallinity by polarized light microscopy, drug with bisVCap [5]: crystallized overnight

Cc1cccc(C)c1OCC(C)N (stereo not drawn) [mexiletine]
crystallinity by polarized light microscopy, drug with bisVCap [5]: appear amorphous
DSC behaviour of mixture with bisVCap [2]: sharp and overlapping endothermic peaks on heating, which arise from decomposition

Cc1c(Cl)cccc1Nc1ccccc1C(=O)O [tolfenamic acid]
crystallinity by polarized light microscopy, drug with bisVCap [5]: appear amorphous
DSC behaviour of mixture with bisVCap [2]: sharp and overlapping endothermic peaks on heating, which arise from decomposition

(bis)vinylcaprolactam [Amorphous bisVCap]
hygroscopicity [6]: not significantly hygroscopic
mass increase in DVS plot [6]: 1.2%

(bis)vinylcaprolactam [bisVCap]
stability of coamorphous phase with ROY on storage [3]: stable for prolonged periods
crystallinity of ROY sample on the basis of birefringence [3]: gives a coamorphous phase with ROY
hygroscopicity [6]: not hydroscopic

(bis)vinylcaprolactam [crystalline bisVCap]
hygroscopicity [6]: not significantly hygroscopic
mass increase in DVS plot [6]: 0.35%
